Laboratory results: US4272437A, “Antibacterial agents, and 4-thio azetidinone intermediates” (priority 1979, dated 1981)
In brackets after ≈: the same amount, converted by molar mass. Read-outs that look alike come from different tables or passages of the source.

Experiments:
[1] = stability of isolated product (light, handling); assay type: physicochemical
[2] = test system: Staph. aureus (Meth-Res) A-15097; test: MIC, tube dilution, Staphylococcus aureus A15097 (Meth-Res); assay type: cell-based; details: Staphylococcus aureus, overnight 37° C.
Excerpt: (§1) Representative compounds of the present invention were subjected to in vitro antibiotic screening against a variety of microorganisms.

Ent. cloacae A-9659 = test: MIC, tube dilution, Enterobacter cloacae A9659; assay type: cell-based; details: Enterobacter cloacae, A9659, Enterobacter cloacae A9659; overnight 37° C.; read-out: Minimum Inhibitory Concentration (M.I.C.)
Excerpt: as §1

Ps. aeruginosa A-9843A = test: MIC, tube dilution, Pseudomonas aeruginosa A9843A; assay type: cell-based; details: Pseudomonas aeruginosa, A9843A, read-out: Minimum Inhibitory Concentration (M.I.C.), Pseudomonas aeruginosa A9843A; overnight 37° C.
Excerpt: as §1

Ps. aeruginosa A-21213 = test: MIC, tube dilution, Pseudomonas aeruginosa A21213; assay type: cell-based; details: overnight 37° C., read-out: Minimum Inhibitory Concentration (M.I.C.)
Excerpt: as §1

E. coli A-15119 = test: MIC, tube dilution, Escherichia coli A15119; assay type: cell-based; details: Escherichia coli, A15119, E. coli A15119; overnight 37° C.; read-out: Minimum Inhibitory Concentration (M.I.C.)
Excerpt: as §1

[3] = test system: Staph. aureus A-9537 and 50% serum; test: MIC, tube dilution, Staph. aureus A9537 + 50% serum; assay type: cell-based, Staphylococcus aureus; details: Staphylococcus aureus, overnight 37° C., read-out: Minimum Inhibitory Concentration (M.I.C.)
Excerpt: as §1

Staph. aureus A-9537 = test: MIC, tube dilution, Staphylococcus aureus A9537; assay type: cell-based; details: Staphylococcus aureus, A9537, Staph. aureus A9537; overnight 37° C., Nutrient Broth; read-out: Minimum Inhibitory Concentration (M.I.C.)
Excerpt: as §1

[4] = test system: Hemophilus influenzae A9833; test: MIC, tube dilution, Hemophilus influenzae A9833; assay type: cell-based; details: Haemophilus influenzae, A9833, read-out: Minimum Inhibitory Concentration (M.I.C.)
Excerpt: as §1

S. aureus A9537 = test: In vivo protection of mice, lethal infection with S. aureus A9537; details: IM, 2 treatments; for ED50: Staphylococcus aureus, A9537, im, read-out: PD50
Experimental: (§2) Representative compounds of the present invention were also tested in vivo in mice and their PD50 (dose of compound in mg/kg required to protect 50% of the treated mice against an otherwise lethal infection of a micro-organism) values determined with respect to the test organisms shown below.

[5] = test system: Klebsiella species A20468; test: MIC, tube dilution, Klebsiella species A20468; assay type: cell-based; details: Klebsiella species (K. pneumoniae) A20468; overnight 37° C.; read-out: Minimum Inhibitory Concentration (M.I.C.)
Excerpt: as §1

Str. faecalis A-20688 = test: MIC, tube dilution, Streptococcus faecalis A20688; assay type: cell-based; details: Enterococcus faecalis, A20688, Str. faecalis A20688; overnight 37° C.; read-out: Minimum Inhibitory Concentration (M.I.C.)
Excerpt: as §1

Pr. mirabilis A-9900 = test: MIC, tube dilution, Proteus mirabilis A9900; assay type: cell-based; details: Proteus mirabilis, A9900, Proteus mirabilis A9900; overnight 37° C.; read-out: Minimum Inhibitory Concentration (M.I.C.)
Excerpt: as §1

Proteus rettgeri A21203 = test: MIC, tube dilution, Proteus rettgeri A21203; assay type: cell-based; details: Providencia rettgeri, overnight 37° C., read-out: Minimum Inhibitory Concentration (M.I.C.)
Excerpt: as §1

Pr. morganii A-15153 = test: MIC, tube dilution, Proteus morganii A15153; assay type: cell-based; details: Morganella morganii, A15153, Proteus morganii A15153; overnight 37° C.; read-out: Minimum Inhibitory Concentration (M.I.C.)
Excerpt: as §1

K. pneumoniae A-15130 = test: MIC, tube dilution, Klebsiella pneumoniae A15130; assay type: cell-based; details: Klebsiella pneumoniae, A15130, K. pneumoniae A15130; overnight 37° C.; read-out: Minimum Inhibitory Concentration (M.I.C.)
Excerpt: as §1

Str. pyogenes A-9604 = test: MIC, tube dilution, Streptococcus pyogenes A9604; assay type: cell-based; details: Streptococcus pyogenes, A9604, Str. pyogenes A9604; overnight 37° C., Nutrient Broth; read-out: Minimum Inhibitory Concentration (M.I.C.)
Excerpt: as §1

Str. pneumoniae A-9585 = test: MIC, tube dilution, Streptococcus pneumoniae A9585; assay type: cell-based; details: Streptococcus pneumoniae, A9585, Str. pneumoniae A9585; overnight 37° C., Nutrient Broth; read-out: Minimum Inhibitory Concentration (M.I.C.)
Excerpt: as §1

Ent. cloacae A-9656 = test: MIC, tube dilution, Enterobacter cloacae A9656; assay type: cell-based; details: overnight 37° C., read-out: Minimum Inhibitory Concentration (M.I.C.)
Excerpt: as §1

E. coli A-20341-1 = test: MIC, tube dilution, Escherichia coli A20341-1; assay type: cell-based
Excerpt: as §1

Ser. marcescens A-20019 = test: MIC, tube dilution, Serratia marcescens A20019; assay type: cell-based; details: Serratia marcescens, A20019, Serratia marcescens A20019; overnight 37° C.; read-out: Minimum Inhibitory Concentration (M.I.C.)
Excerpt: as §1

[6] = Mouse blood levels after intramuscular administration; assay type: in vivo; details: average of 6 mice, read-out: Mouse blood level
Experimental: Mouse blood levels after intramuscular administration of representative compounds of the present invention were determined and are reported in the table below.

[7] = test system: Staph. aureus (Pen-Res) A-9606; test: MIC, tube dilution, Staphylococcus aureus A9606 (Pen-Res); assay type: cell-based; details: Staphylococcus aureus, Staph. aureus A9606 (Pen-Res); overnight 37° C.; read-out: Minimum Inhibitory Concentration (M.I.C.)
Excerpt: as §1

Proteus vulgaris A21559 = test: MIC, tube dilution, Proteus vulgaris A21559; assay type: cell-based; details: Proteus vulgaris, A21559, Proteus vulgaris A21559; overnight 37° C.; read-out: Minimum Inhibitory Concentration (M.I.C.)
Excerpt: as §1

S. pyogenes A9604 = test: In vivo protection of mice, lethal infection with S. pyogenes A9604; details: Streptococcus pyogenes, A9604, im, 2 treatments, read-out: PD50
Experimental: as §2

[8] = test system: Providencia stuartii A21205; test: MIC, tube dilution, Providencia stuartii (Pr. rettgeri) A21205; assay type: cell-based; details: Providencia stuartii, A21205, Providencia stuartii (Pr. rettgeri) A21205; overnight 37° C.; read-out: Minimum Inhibitory Concentration (M.I.C.)
Excerpt: as §1

S. aureus A9606 = test: In vivo protection of mice, lethal infection with S. aureus A9606; details: Staphylococcus aureus, IM, 2 treatments, 8 × 10^8 organisms, read-out: PD50
Experimental: as §2

K. pneumoniae A15130 = test: In vivo protection of mice, lethal infection with K. pneumoniae A15130; details: Klebsiella pneumoniae, IM, 2 treatments, 1.2 × 10^3 organisms, read-out: PD50
Experimental: as §2

S. pneumoniae A9585 = test: In vivo protection of mice, lethal infection with S. pneumoniae A9585; details: Streptococcus pneumoniae, A9585, im, 2 treatments, read-out: PD50
Experimental: as §2

[9] = in vitro and in vivo, literature; cited from earlier work
β-lactamases = details: literature; cited from earlier work
[10] = test system: Gram-negative and Gram-positive organisms; details: literature; cited from earlier work
[11] = Escherichia coli, A203411, E. coli A20341-1; overnight 37° C.; read-out: Minimum Inhibitory Concentration (M.I.C.)

Row | Compound | stability [1] | MIC (Ent. cloacae A-9659) [µg/mL] | MIC (Ps. aeruginosa A-9843A) [µg/mL] | MIC (Ps. aeruginosa A-21213; Pseudomonas aeruginosa A21213) [µg/mL] | MIC (E. coli A-15119) [µg/mL] | MIC [3] [µg/mL] | MIC (Staph. aureus A-9537) [µg/mL] | MIC [5] [µg/mL] | MIC (Str. faecalis A-20688) [µg/mL] | MIC (Pr. mirabilis A-9900) [µg/mL] | MIC (Pr. morganii A-15153) [µg/mL] | MIC (K. pneumoniae A-15130) [µg/mL] | MIC (Str. pyogenes A-9604) [µg/mL] | MIC (Str. pneumoniae A-9585) [µg/mL] | MIC (Ser. marcescens A-20019) [µg/mL] | MIC [7] [µg/mL] | MIC (E. coli A-20341-1; [11]) [µg/mL] | other results
1 | CC(=O)OC[C@H]1C(=O)N2C(C(=O)O)=C(CN)S[C@H]12 (relative stereo) [cis 6-Acetoxymethyl-2-aminomethylpenem-3-carboxylic Acid] | unstable | – | – | – | – | – | – | – | – | – | – | – | – | – | – | – | – | –
2 | NCCC1=C(C(=O)O)N2C(=O)CC2S1 (centres unmarked) [Example 24, 2-Aminoethylpenem-3-carboxylic Acid] | – | 63 (≈ 294 µM) | 125 (≈ 583 µM) | > 125 | 32 (≈ 149 µM) | 16 | 4 (≈ 18.7 µM) | 125 (≈ 583 µM) | 63 (≈ 294 µM) | 63 (≈ 294 µM) | 125 (≈ 583 µM) | > 125 | 2 (≈ 9.34 µM) | 2 (≈ 9.34 µM) | 63 (≈ 294 µM) | 8 (≈ 37.3 µM) | – | MIC ([2]; read-out: Minimum Inhibitory Concentration (M.I.C.), Staph. aureus A15097 (Meth-Res)): > 125 µg/mL; MIC [4]: > 125 µg/mL; ED50 (S. aureus A9537; 1 × 10^6 organisms): 0.63 mg/kg; MIC (Proteus rettgeri A21203; Proteus rettgeri A21203): 125 µg/mL (≈ 583 µM); MIC (Ent. cloacae A-9656; Enterobacter cloacae A9656): 125 µg/mL (≈ 583 µM); MIC (E. coli A-20341-1; Escherichia coli, A203411; E. coli A20341-1; overnight 37° C.; read-out: Minimum Inhibitory Concentration (M.I.C.)): 125 µg/mL (≈ 583 µM); concentration at 10 min ([6]; 10 minutes after IM 40 mg/kg): 51400 ng/mL; concentration at 20 min ([6]; 20 minutes after IM 40 mg/kg): 37100 ng/mL; concentration at 0.5 h ([6]; 30 minutes after IM 40 mg/kg): 21800 ng/mL; concentration at 0.75 h ([6]; 45 minutes after IM 40 mg/kg): 9400 ng/mL; concentration at 1 h ([6]; 60 minutes after IM 40 mg/kg): 5000 ng/mL; concentration at 1.5 h ([6]; 90 minutes after IM 40 mg/kg): < 3100 ng/mL; concentration at 2 h ([6]; 120 minutes after IM 40 mg/kg): < 3100 ng/mL
3 | NC1CC1C1=C(C(=O)O)N2C(=O)CC2S1 (stereo not drawn) [Example 99, 2-(trans-2-Aminocyclopropyl)-penem-3-carboxylic Acid] | suspected to be very light sensitive | 16 (≈ 70.7 µM) | > 63 | – | 8 (≈ 35.4 µM) | 16 | 1 (≈ 4.42 µM) | > 63 | 63 (≈ 278 µM) | 8 (≈ 35.4 µM) | 16 (≈ 70.7 µM) | 32 (≈ 141 µM) | 1 (≈ 4.42 µM) | 1 (≈ 4.42 µM) | 16 (≈ 70.7 µM) | 4 (≈ 17.7 µM) | 63 (≈ 278 µM) | MIC ([2]; Staph. aureus A15097 (Meth-Res), read-out: Minimum Inhibitory Concentration (M.I.C.)): 32 µg/mL (≈ 141 µM); MIC (Ps. aeruginosa A-21213; Pseudomonas aeruginosa, A21213, Pseudomonas aeruginosa A21213): > 63 µg/mL; MIC (Proteus rettgeri A21203; A21203, Proteus rettgeri A21203): 8 µg/mL (≈ 35.4 µM); MIC (Proteus vulgaris A21559): 16 µg/mL (≈ 70.7 µM); MIC (Ent. cloacae A-9656; Enterobacter cloacae, A9656, Enterobacter cloacae A9656): 16 µg/mL (≈ 70.7 µM)
4 | CC1=C(C(=O)O)N2C(=O)C[C@H]2S1 [Preparation 2,3, 2-Methylpenem-3-carboxylic Acid] | – | – | – | > 125 | – | – | – | > 125 | 32 (≈ 173 µM) | – | – | – | – | – | – | 1 (≈ 5.4 µM) | 16 (≈ 86.4 µM) | ED50 (S. pyogenes A9604; 1.2 × 10^3 organisms): > 50 mg/kg; ED50 (S. pyogenes A9604; 8 × 10^3 organisms): > 12.5 mg/kg; MIC [8]: 4 µg/mL (≈ 21.6 µM); PD50 (S. aureus A9537; 1.1 × 10^6 organisms, listed as Prep. 2,3): 22 mg/kg/treatment; ED50 (S. aureus A9537; 1.1 × 10^6 organisms): 13 mg/kg; ED50 (S. aureus A9537; 7.8 × 10^5 organisms): 13 mg/kg; ED50 (S. aureus A9606): > 50 mg/kg; ED50 (K. pneumoniae A15130): > 400 mg/kg; ED50 (S. pneumoniae A9585; 3 × 10^4 organisms): > 12.5 mg/kg; ED50 (S. pneumoniae A9585; 3.4 × 10^4 organisms): > 50 mg/kg
5 | O=C(O)[C@H]1/C(=C/CO)O[C@@H]2CC(=O)N21 [clavulanic acid] | – | – | – | – | – | – | – | – | – | – | – | – | – | – | – | – | – | enhancement of activity of penicillins and cephalosporins [9]: enhances the in vitro and in vivo activity of some penicillins and cephalosporins; β-lactamase inhibition (β-lactamases): inhibits the action of certain β-lactamases; antibacterial activity [10]: low order of antibacterial activity
